Results reported in patent US9102637B2, “Bicyclic thiazole compounds” (CARNA BIOSCIENCES INC., priority 2013, dated 2015).

Legend:
[1] = test system: human colon cancer cell line HCT-116; test: In vitro cell proliferation assay; assay type: cell-based; settings: HCT-116 cell number, 72 hours of treatment
Protocol: In Vitro Cell Proliferation Assay
The human colon cancer cell line HCT-116 was seeded at 600 cells/well in 96 well-plate (ThermoFisher) using RPMI medium containing 2 mM L-glutamine (Invitrogen) supplemented with 10% FCS (Invitrogen) and 1% penicillin/streptomycin (Sigma) and maintained at 37° C., 5% CO2 and 100% humidity. The following day, old medium was withdrawn and the fresh medium was added. Initial numbers of cells were counted before adding compounds. Then cells were treated in duplicates with compounds (a half-logarithmic serial dilution from 10 μM). Eight untreated control wells were incubated in each plate. After 72 hours of treatment, cells were fixed with 2% paraformaldehyde, and the nucleus were stained with Hoechst 33258 (Invitrogen). The numbers of cells were counted with ArrayScan™ VTI (ThermoFisher Scientific).

[2] = molecular target: human TNIK (N-terminal segment, TNIK_N, residues 1-314) (Homo sapiens (Human), UniProt Q9UKE5); test: TNIK kinase assay (mobility shift); assay type: biochemical; settings: TNIK_N kinase activity, 25 μM ATP, 1 h at room temperature
human TNIK (N-terminal segment, TNIK_N, residues 1-314), sequence (Q9UKE5 1-314): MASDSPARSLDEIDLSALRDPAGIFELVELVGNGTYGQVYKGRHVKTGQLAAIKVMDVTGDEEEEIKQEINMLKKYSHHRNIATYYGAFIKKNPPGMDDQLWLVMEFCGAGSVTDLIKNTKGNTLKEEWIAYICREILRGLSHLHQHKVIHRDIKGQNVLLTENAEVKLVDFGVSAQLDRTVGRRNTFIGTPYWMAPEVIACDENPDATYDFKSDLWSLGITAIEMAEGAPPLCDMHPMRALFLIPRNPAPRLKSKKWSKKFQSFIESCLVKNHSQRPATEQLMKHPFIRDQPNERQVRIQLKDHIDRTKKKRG
Text: Preparation of Recombinant Human TNIK (N-Terminal Segment):
A cDNA encoding the N-terminal segment (TNIK_N, residues 1-314) containing the kinase domain of human TNIK (NM_015028.1) was amplified from cDNA mixture synthesized from human tissue (Biochain) by PCR using the following primers.
The cDNA was subcloned into baculovirus transfer vector pFastBac_GSTb that includes protease cleavage site and glutathione S-transferase purification tag (GST-tag). The plasmid was purified and the insertion of the pFastBac_GSTb-TNIK_N was confirmed by DNA sequencing. Then E. coli DH10Bac competent cells were transformed with the plasmid to prepare the recombinant bacmid according to the instructions for the Bac-to-Bac™ baculovirus expression systems (Invitrogen). The Sf9 cells were transfected with the recombinant bacmid containing pFastBac_GSTb-TNIK_N using Cellfectin Reagent (Invitrogen) in SF-9001I serum free media (Invitrogen). The viral supernatant was collected from the medium 72 h after transfection. The virus was amplified three times by infecting actively growing Sf9 or Sf21 cells in Grace's insect media (Invitrogen) supplemented with 10% FCS and an antibiotic-antimycotic reagent (Invitrogen) for 72 h at 27° C. in T-flask or roller bottles. The titer of amplified TNIK_N virus was estimated at 2.36×10^8 pfu/ml by using BacPAK™ Baculovirus Rapid Titer kit (Clontech).
Log-phase Sf21 cells (2×10^6 cells/ml) in the Grace's insect media were infected with the recombinant baculovirus at MOI of 3.0 and incubated in roller bottles (250 ml media per bottle) for 72 h at 27° C., after which, the cells were collected by centrifugation, and the cell pellet washed with cold PBS and kept at −80° C. until purification. The following purification procedures were carried out at 4° C. The frozen cells were thawed on ice and lysed in lysis buffer (50 mM Tris-HCl, pH 7.5, 150 mM NaCl, 1% Nonidet P-40, 5 mM DTT, 0.5 mM EDTA, 0.5 mM EGTA) supplemented with 1 mM phenylmethansulfonylfluoride, 2 μg/ml leupeptin, 2 μg/ml aprotinin, 1 mM NaF, 100 μM sodium orthovanadate, and 1 μM cantharidin by sonication. The suspended lysate was cleared by centrifugation at 9000g for 20 min and the supernatant was incubated for 1 h with glutathione Sepharose beads (GE Healthcare). The beads were suspended in buffer-H (50 mM Tris-HCl, pH 7.5, 1 M NaCl, 1 mM DTT, 0.5 mM EDTA, 0.5 mM EGTA and 0.05% Brij35) and washed with buffer-H followed by buffer-L (50 mM Tris-HCl, pH 7.5, 150 mM NaCl, 1 mM DTT, 0.5 mM EDTA, 0.5 mM EGTA, 0.05% Brij35) in an Econo-pack column (BIO-RAD). The bound TNIK_N was eluted with elution buffer (50 mM Tris-HCl, pH 8.0, 150 mM NaCl, 1 mM DTT, 10% glycerol, 0.5 mM EDTA, 0.5 mM EGTA and 5 mM reduced glutathione). The eluted fractions were collected and determined the protein concentration by Bradford reagent (BIO-RAD). The TNIKN fractions were pooled and desalted using 10DG column (BIORAD) equilibrated with the storage buffer (50 mM Tris-HCl, pH 7.5, 150 mM NaCl, 1 mM DTT, 10% glycerol, 0.05% Brij35). The purified TNIKN was characterized by electrophoresis using 4-20% polyacrylamide gels and matrix-assisted laser desorption/ionization reflection time-of-flight (MALDI-TOF) mass spectrometry on a Voyager-DE RP MALDI/TOF (Applied Biosystems). TNIK_N was confirmed by the molecular weight and. MASCOT Peptide Mass Fingerprint.
The kinase assays were conducted in a 20 μl volume using 384-well plates (Greiner). The reaction mixture consists of compound or vehicle (1% DMSO), 0.08 ng/μl TNIK_N, 1 μM FITC-labeled substrate peptides, including E-aminocaproic acid and 7 amino acids (described as SEQ ID NO.3 in “Kinase assay of TEST EXAMPLE 1” of WO 2010/064111(P.31)), 20 mM Hepes, pH 7.5, 0.01% Triton X-100, 5 mM MgCl2, 25 μM ATP and 2 mM DTT. As blank, TNIK N was excluded from the reaction mixture of vehicle (1% DMSO). […]

SMILES	IC50 [1]	IC50 [2]
Cc1ccc(C(=O)Nc2sc(Nc3ccc4ccccc4c3)nc2C(N)=O)s1 [Example 34, 5-(5-methylthiophene-2-carboxamido)-2-(naph-thalen-2-ylamino)thiazole-4-carboxamide]	< 0.1 µM	
CN1CCN(Cc2cc(C(=O)Nc3sc(Nc4ccc5ccccc5c4)nc3C(N)=O)cs2)CC1 [Example 60, 5-{5-[(4-methylpiperazin-1-yl)methyl]thiophene-3-carboxamido}-2-(naphthalen-2-ylamino) thiazole-4-carboxamide]	< 0.1 µM	
NC(=O)c1nc(Nc2ccc3ccccc3c2)sc1NC(=O)c1ccc(F)cc1 [Example 8, 5-(4-fluorobenzamido)-2-(naphthalen-2-ylamino) thiazole-4-carboxamide]	0.1 to 1 µM	
NC(=O)c1nc(Nc2ccc3ccccc3c2)sc1NC(=O)c1ccc(NC(=O)CO)cc1 [Example 21, 5-[4-(2-hydroxyacetamido)benzamido]-2-(naphthalen-2-ylamino)thiazole-4-carboxamide]	< 0.1 µM	
NC(=O)c1nc(Nc2ccc3ccccc3c2)sc1NC(=O)c1ccc(CN2CCNCC2)cc1 [Example 19, 2-(naphthalen-2-ylamino)-5-[4-(piperazin-1-ylmethyl)benzamido]thiazole-4-carboxamide]	0.1 to 1 µM	
NC(=O)c1nc(Nc2ccc3ccccc3c2)sc1NC(=O)c1ccc(NCCOCCO)cc1 [Example 78, 5-(4-{[2-(2-hydroxyethoxy)ethyl]amino}benz-amido)-2-(naphthalen-2-ylamino)thiazole-4-carbox-amide]	< 0.1 µM	
CN1CCN(CCCCCC(=O)Nc2sc(Nc3ccc4ccccc4c3)nc2C(N)=O)CC1 [Example 91, 5-[6-(4-methylpiperazin-1-yl)hexanamido]-2-(naphthalen-2-ylamino)thiazole-4-carboxamide]	0.1 to 1 µM	
COc1ccc2cc(Nc3nc(C(N)=O)c(NC(=O)c4ccc(Cn5ccnc5)cc4)s3)ccc2c1 [Example 248, 5-{4-[(1H-imidazol-1-yl)methyl]benzamido}-2-[(6-methoxynaphthalen-2-yl)amino]thiazole-4-carboxamide]		0.0061 µM
C[C@H](O)CNc1ccc(C(=O)Nc2sc(Nc3ccc4ccccc4c3)nc2C(N)=O)cc1 [Example 146, (S)-5-{4-[(2-hydroxypropyl)amino]benzamido}-2-(naphthalen-2-ylamino)thiazole-4-carboxamide]		0.0151 µM
NC(=O)c1nc(Nc2ccc3ccccc3c2)sc1NC(=O)c1ccc(CNCCO)cc1 [Example 163, 5-(4-{[(2-hydroxyethyl)amino]methyl}benzamido)-2-(naphthalen-2-ylamino)thiazole-4-carboxamide]		0.0037 µM
NC(=O)c1nc(Nc2ccc3ccc(F)cc3c2)sc1NC(=O)c1ccsc1 [Example 80, 2-[(7-fluoronaphthalen-2-yl)amino]-5-(thiophene-3-carboxamido)thiazole-4-carboxamide]		0.0169 µM
NC(=O)c1nc(Nc2ccc3ccccc3c2)sc1NC(=O)c1ccc(N2CCN(CCO)CC2)cc1 [Example 187, 5-{4-[4-(2-hydroxyethyl)piperazin-1-yl]benzamido}-2-(naphthalen-2-ylamino)thiazole-4-carbox-amide]		0.0072 µM
NC(=O)c1nc(Nc2ccc3ccccc3c2)sc1NC(=O)c1ccc(CN2CCCCC2CO)cc1 (centres unmarked) [Example 189, 5-(4-{[2-(hydroxymethyl)piperidin-1-yl]methyl}benzamido)-2-(naphthalen-2-ylamino)thiazole-4-carboxamide]		0.0068 µM
NC(=O)c1nc(Nc2ccc3ccc(F)cc3c2)sc1NC(=O)c1ccc(Cn2ccnc2)cc1 [Example 262, 5-{4-[(1H-imidazol-1-yl)methyl]benzamido}-2-[(7-fluoronaphthalen-2-yl)amino]thiazole-4-carbox-amide]		0.0084 µM
NC(=O)c1nc(Nc2ccc3cc(CO)ccc3c2)sc1NC(=O)C1CC1 [Example 138, 5-(cyclopropanecarboxamido)-2-{[6-(hydroxy-methyl)naphthalen-2-yl]amino}thiazole-4-carbox-amide]		0.0058 µM
CN(c1ccc2ncccc2c1)c1nc(C(N)=O)c(NC(=O)c2csc(CN3CCOCC3)c2)s1 [Example 51]		0.0057 µM

Next, values leading:

IC50 [1]	IC50 [2]	SMILES
< 0.1 µM		NC(=O)c1nc(Nc2ccc3ccccc3c2)sc1NC(=O)c1ccc(N2CCOCC2)cc1 [Example 15, 5-(4-morpholinobenzamido)-2-(naphthalen-2-yl-amino)thiazole-4-carboxamide]
1 to 10 µM		NC(=O)c1nc(Nc2ccnc3ccccc23)sc1NC(=O)c1csc(CN2CCOCC2)c1 [Example 67]
1 to 10 µM		NC(=O)c1nc(Nc2cccc3ncccc23)sc1NC(=O)c1csc(CN2CCOCC2)c1 [Example 49, 5-[5-(morpholinomethyl)thiophene-3-carbox-amido]-2-(quinolin-5-ylamino)thiazole-4-carboxamide]
	0.0185 µM	Cc1noc(Cc2ccc(C(=O)Nc3sc(Nc4ccc5ccccc5c4)nc3C(N)=O)cc2)n1 [Example 256, 5-{4-[(3-methyl-1,2,4-oxadiazol-5-yl)methyl]benzamido}-2-(naphthalen-2-ylamino)thiazole-4-carboxamide]
	0.0094 µM	NC(=O)c1nc(Nc2cccc3ncccc23)sc1NC(=O)c1ccsc1 [Example 40, 2-(quinolin-5-ylamino)-5-(thiophene-3-carbox-amido)thiazole-4-carboxamide]
< 0.1 µM		CN(C)Cc1ccc(C(=O)Nc2sc(Nc3ccc4ccccc4c3)nc2C(N)=O)cc1 [Example 20, 5-{4-[(dimethylamino)methyl]benzamido}-2-(naphthalen-2-ylamino)thiazole-4-carboxamide]
	0.0031 µM	Cc1cn(Cc2ccc(C(=O)Nc3sc(Nc4ccc5ccccc5c4)nc3C(N)=O)cc2)cn1 [Example 238, 5-{4-[(4-methyl-1H-imidazol-1-yl)methyl]benz-amido}-2-(naphthalen-2-ylamino)thiazole-4-carbox-amide]
	0.0152 µM	COc1ccc2cc(Nc3nc(C(N)=O)c(NC(=O)C=C(C)C)s3)ccc2c1 [Example 137, 2-[(6-methoxynaphthalen-2-yl)amino]-5-(3-meth-ylbut-2-enamido)thiazole-4-carboxamide]
	0.0097 µM	NC(=O)c1nc(Nc2ccc3ccccc3c2)sc1NC(=O)C#CCCCn1ccnc1 [Example 234, 5-[6-(1H-imidazol-1-yl)hex-2-ynamido]-2-(naph-thalen-2-ylamino)thiazole-4-carboxamide]
	0.0107 µM	NC(=O)c1nc(Nc2ccc3ccccc3c2)sc1NC(=O)C#CCCCn1cncn1 [Example 233, 5-[6-(1H-1,2,4-triazol-1-yl)hex-2-ynamido]-2-(naphthalen-2-ylamino)thiazole-4-carboxamide]
